Biological target: PDZ1–3 (PDZ123) domains of PSD-95 (Rattus norvegicus, UniProt P31016)
Assay: […]-1H HSQC NMR chemical shift titration
Format: binding

Sequence of PDZ1–3 (PDZ123) domains of PSD-95 (P31016 61-393): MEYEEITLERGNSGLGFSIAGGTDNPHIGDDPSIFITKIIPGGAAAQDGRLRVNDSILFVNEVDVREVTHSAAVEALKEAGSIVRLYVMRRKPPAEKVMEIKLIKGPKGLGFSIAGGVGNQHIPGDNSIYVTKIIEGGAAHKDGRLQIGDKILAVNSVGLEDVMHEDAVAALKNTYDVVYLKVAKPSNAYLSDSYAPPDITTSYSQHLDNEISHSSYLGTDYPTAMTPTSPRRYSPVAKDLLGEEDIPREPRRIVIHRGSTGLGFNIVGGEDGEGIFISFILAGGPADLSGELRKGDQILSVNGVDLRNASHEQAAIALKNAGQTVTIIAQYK

- Kd: ~3 mM
SMILES: FC(F)OC(Cl)C(F)(F)F (stereo not shown) [isoflurane]

From publication PMC4366275 (Anesthesiology, 2015)
